Test results as given in patent US20120184747A1, “ANILINE COMPOUND” (UBE INDUSTRIES, LTD., priority 2009, published 2012).
Where a name gives a salt, the structure may show the parent alone. Read-outs that look alike come from different tables or passages of the source.

How the values were obtained:
[1] = tested on: isolated guinea pig trachea; assay: Isolated guinea pig trachea relaxation test; details: Cavia porcellus, read-out: Contraction-inhibiting rate (%)
Method: The tracheas were isolated from guinea pigs (Hartley, male, age 7 to 9 weeks, supplier: Nippon SLC) followed by cutting as rings containing cartilage. The trachea specimens were suspended in Krebs solution containing 3 μM indomethacin while applying a load of 1.0 g, and changes in tension were measured through an FD pickup (TB-611T, Nippon Kohden). […] After causing the trachea specimen to contract by electrical field stimulation (SEN-3401, Nippon Kohden) and the contractive reaction being stable, a test compound dissolved in dimethylsulfoxide was added to cause the trachea specimen to relax. The inhibiting rate to the contractive reaction before adding the compound was calculated.

human EP2 receptor [2] = molecular target: T1, human EP2 receptor (Homo sapiens, UniProt P43116); assay: Measurement of EP2 receptor binding action; details: membrane fraction of HEK293 cells expressing human EP2 receptor; [3H]prostaglandin 10 nM; Ki calculated from IC50
T1 construct: host or cells: HEK293 cells
Method: Measurement of EP2 receptor binding action was carried out in compliance with the method of Abramovitz et al. (Biochimica et Biophysica Acta, 1483, 285 (2000)). A test compound dissolved in dimethylsulfoxide and [^3H]prostaglandin […] (NET-428, PerkinElmer) (final concentration: 10 nM) were added to a buffer solution (10 mM MES-KOH (pH 6.0), 10 mM MgCl2, 1 mM EDTA) in which was suspended 10 μg of a membrane fraction of HEK293 cells expressing human EP2 receptor (ES-562-M, available from Euroscreen) followed by incubating at 30° C. for 60 minutes. The membrane fraction was recovered on glass fiber filter paper (GF/B, Whatmann) using a cell harvester (M30R, Brandel), and after washing with buffer solution (10 mM MES-KOH (pH 6.0), 10 mM MgCl2), radioactivity was measured with a liquid scintillation analyzer (2000CA, Packard).
Ki=IC50/(1+([^3H]prostaglandin E2 concentration/Kd))
The dissociation constant (Kd value) was calculated by Scatchard analysis.

human EP2 receptor [3] = molecular target: T1, human EP2 receptor; assay: Measurement of EP2 agonist activity (cAMP in HEK293 cells expressing human EP2 receptor); assay type: cell-based; details: cAMP increase in HEK293 cells expressing human EP2 receptor, 30 minutes
Method: Measurement of EP2 agonist activity was carried out in compliance with the method of Wilson et al. (European Journal of Pharmacology, 501, 49 (2004)). HEK293 cells expressing human EP2 receptor (ES-562-C, available from Euroscreen) were cultured in MEM medium containing 10% FBS and seeded at 2×10^4 cells per well of a 96-well plate. On the following day, the medium was replaced with serumfree MEM medium containing 3-isobutyl-1-methylxanthine (final concentration: 500 μM) and after culturing for 30 minutes, a test compound dissolved in dimethylsulfoxide was added followed by allowing to stand undisturbed in a carbon dioxide incubator. After 30 minutes, the amount of cAMP in the cells was measured with a cAMP Biotrak EIA System kit (available from GE Healthcare Biosciences). The concentration of test compound required to increase the amount of cAMP to 50% of the maximum increase (EC50 value) was calculated by non-linear regression of the test compound concentration and amount of cAMP using EXSAS.

T1 sequence (P43116 whole entry): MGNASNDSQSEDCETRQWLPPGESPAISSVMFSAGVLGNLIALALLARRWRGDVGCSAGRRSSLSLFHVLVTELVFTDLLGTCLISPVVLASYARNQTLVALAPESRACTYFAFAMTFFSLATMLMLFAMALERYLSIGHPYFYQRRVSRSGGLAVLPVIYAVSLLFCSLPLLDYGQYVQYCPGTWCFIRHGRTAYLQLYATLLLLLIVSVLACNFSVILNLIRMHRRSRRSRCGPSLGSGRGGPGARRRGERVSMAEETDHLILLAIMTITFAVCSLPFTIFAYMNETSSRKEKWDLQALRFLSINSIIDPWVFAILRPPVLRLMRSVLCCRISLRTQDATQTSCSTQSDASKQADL

Row | SMILES | inhibition at 10 µM [1] [%] | further results
1 | CNc1ccc(CN(Cc2cccc(NCC(=O)O)n2)S(=O)(=O)c2cccnc2)cc1 [Example 1, {6-[(4-Methylaminobenzyl) (pyridin-3-ylsulfonyl)aminomethyl]pyridin-2-ylamino}-acetic acid] | 95 | –
2 | CCCS(=O)(=O)N(C)c1ccc(CN(Cc2cccc(NCC(=O)O)n2)S(=O)(=O)c2cccnc2)cc1 [Example 2, [6-({4-[Methyl(propylsulfonyl)amino]benzyl}(pyridin-3-ylsulfonyl)aminomethyl)pyridin-2-ylamino]acetic acid] | 86 | –
3 | CC[N+](C)(CC)c1ccc(CN(Cc2cccc(NCC(=O)O)n2)S(=O)(=O)c2cccnc2)cc1 [Example 4, [6-({4-[Diethyl(methyl)ammonio]benzyl}(pyridin-3-ylsulfonyl)aminomethyl)pyridin-2-ylamino]acetic acid hydrochloride] | – | inhibition at 10 µM ([1]; test compound concentration 10 μM, contraction by electrical field stimulation): 81%
4 | CCCC(=O)N(C)c1ccc(CN(Cc2cccc(NCC(=O)O)n2)S(=O)(=O)c2cccnc2)cc1 [Example 5, [6-({4-[Butyryl(methyl)amino]benzyl}(pyridin-3-ylsulfonyl)aminomethyl)pyridin-2-ylamino]acetic acid] | 92 | –
5 | CN(Cc1ccccc1)c1ccc(CN(Cc2cccc(NCC(=O)O)n2)S(=O)(=O)c2cccnc2)cc1 [Example 6, [6-({4-[Benzyl(methyl)amino]benzyl}(pyridin-3-ylsulfonyl)aminomethyl)pyridin-2-ylamino]acetic acid] | 94 | –
6 | CCCCN(C)c1ccc(CN(Cc2cccc(NCC(=O)O)n2)S(=O)(=O)c2ccccn2)cc1 [Example 7, [6-({4-[Butyl(methyl)amino]benzyl}(pyridin-2-ylsulfonyl)aminomethyl)pyridin-2-ylamino]acetic acid] | – | Ki (human EP2 receptor [2]): 10 nM; EC50 (human EP2 receptor [3]): 1.2 nM; inhibition at 0.03 µM [1]: 84%
